# Results published in US4678781A, “3-substituted-aminomethyl cephalosporin derivatives” (ICI Pharma, priority 1983, dated 1987).
# Assays:
# P. aeruginosa = experiment: MIC, agar-dilution technique, standard in vitro test; assay type: cell-based; conditions: Pseudomonas aeruginosa; strain code A8101028; Isosensitest agar; inoculum 10^4 CFU./spot; read-out: minimum inhibitory concentration (MIC)
# Text: (§1) The results set out in the following Table are illustrative of the biological activity of the compounds of the present invention. The listed compounds all carry a 1-methyl-4-pyridinioaminomethyl radical at the 3-position of the cephalosporin nucleus and a variety of known substituents at the 7-position. The following results are those obtained on a standard in vitro test system and using Isosensitest agar medium. The antibacterial activity is described in terms of the minimum inhibitory concentration (MIC) determined by agar-dilution technique with an inoculum size of 10^4 CFU./spot.
# Ent. cloacae = experiment: as above; assay type: cell-based; conditions: Enterobacter cloacae; strain code A8401054; Isosensitest agar; inoculum 10^4 CFU./spot; read-out: minimum inhibitory concentration (MIC)
# Text: as §1
# Serr. marcescens = experiment: as above; assay type: cell-based; conditions: Serratia marcescens; strain code A8421020; Isosensitest agar; inoculum 10^4 CFU./spot; read-out: minimum inhibitory concentration (MIC)
# Text: as §1
# Strep. pyogenes = experiment: as above; assay type: cell-based; conditions: Streptococcus pyogenes; strain code A8681018; Isosensitest agar; inoculum 10^4 CFU./spot; read-out: minimum inhibitory concentration (MIC)
# Text: as §1
# Sal. dublin = experiment: as above; assay type: cell-based; conditions: Salmonella enterica; strain code A8369001; Isosensitest agar; inoculum 10^4 CFU./spot; read-out: minimum inhibitory concentration (MIC)
# Text: as §1
# Kleb. aerogenes = experiment: as above; assay type: cell-based; conditions: Klebsiella aerogenes; strain code A8391027; Isosensitest agar; inoculum 10^4 CFU./spot; read-out: minimum inhibitory concentration (MIC)
# Text: as §1
# E. coli = experiment: as above; assay type: cell-based; conditions: Escherichia coli; strain code A8341098; Isosensitest agar; inoculum 10^4 CFU./spot; read-out: minimum inhibitory concentration (MIC)
# Text: as §1
# Staph. aureus = experiment: as above; assay type: cell-based; conditions: Staphylococcus aureus; strain code A8601052; Isosensitest agar; inoculum 10^4 CFU./spot; read-out: minimum inhibitory concentration (MIC)
# Text: as §1
# Prot. mirabilis = experiment: as above; assay type: cell-based; conditions: Proteus mirabilis; strain code A8432057; Isosensitest agar; inoculum 10^4 CFU./spot; read-out: minimum inhibitory concentration (MIC)
# Text: as §1
# [1] = Toxicity observation in mice after subcutaneous administration; assay type: in vivo; conditions: two single doses over one day, each at least five times the PD50 against Salmonella dublin
# Procedure: A number of compounds were administered to mice at doses in excess of those required to afford protection against bacterial infections. Thus for example the compounds of Examples 23, 70 and 74 were administered subcutaneously to mice in two single doses over one day, each dose being at least five times the minimum effective dose which protected 50% of the mice against infection with Salmonella dublin (PD50).
Compound,MIC (P. aeruginosa) [µg/mL],MIC (Ent. cloacae) [µg/mL],MIC (Serr. marcescens) [µg/mL],MIC (Strep. pyogenes) [µg/mL],MIC (Sal. dublin) [µg/mL],MIC (Kleb. aerogenes) [µg/mL],MIC (E. coli) [µg/mL],MIC (Staph. aureus) [µg/mL],MIC (Prot. mirabilis) [µg/mL],overt toxic symptoms or side effects [1]
CCN1CCN(C(=O)N[C@@H](C(=O)N[C@@H]2C(=O)N3C(C(=O)[O-])=C(CNc4cc[n+](C)cc4)CS[C@H]23)c2ccc(O)cc2)C(=O)C1=O [Example 81],> 128,4,8,0.13,8,2,2,1,32,–
C[n+]1ccc(NCC2=C(C(=O)[O-])N3C(=O)[C@@H](NC(=O)/C(=N\OC4(C(=O)O)CCC4)c4csc(N)n4)[C@H]3SC2)cc1 [Example 74],4,1,1,0.25,0.13,0.5,0.25,8,0.13,No overt toxic symptoms or side effects attributable to the administered compounds were noted
C=CCO/N=C(\C(=O)N[C@@H]1C(=O)N2C(C(=O)[O-])=C(CNc3cc[n+](C)cc3)CS[C@H]12)c1csc(N)n1 [Example 70],32,1,0.5,< 0.016,0.5,0.13,0.25,1,0.5,No overt toxic symptoms or side effects attributable to the administered compounds were noted
C[n+]1ccc(NCC2=C(C(=O)[O-])N3C(=O)[C@@H](NC(=O)[C@H](NC(=O)c4n[nH]c(=O)nc4O)c4ccc(O)cc4)[C@H]3SC2)cc1 [Example 82],> 12,> 128,> 128,0.5,64,64,128,2,32,–
C[n+]1ccc(NCC2=C(C(=O)[O-])N3C(=O)[C@@H](NC(=O)/C(=N\OCC#N)c4csc(N)n4)[C@H]3SC2)cc1 [Example 96],32,0.25,0.032,–,0.064,< 0.016,0.032,0.5,0.064,–
CO/N=C(\C(=O)N[C@@H]1C(=O)N2C(C(=O)O)=C(CNc3cc[n+](C)cc3)CS[C@H]12)c1csc(N)n1 [Example 9],16,0.064,0.13,0.016,0.25,0.032,0.032,1,0.064,–
C[n+]1ccc(NCC2=C(C(=O)[O-])N3C(=O)[C@@H](NC(=O)/C(=N\OC(C)(C)C(=O)O)c4csc(N)n4)[C@H]3SC2)cc1 [Example 23],2,0.5,0.25,0.13,0.25,0.13,0.13,8,0.064,No overt toxic symptoms or side effects attributable to the administered compounds were noted
